We go through one compound from US20140296153A1, “Oligodendrocyte Differentiation” (priority 2011, published 2014).

One data set has as its system SVZ cells. Kind of data set: TUNEL apoptosis assay in SVZ cell cultures. Conditions: for TUNEL-positive nuclei: 48 hours. It counts as cell-based, mouse. The protocol: Six- to 8-day-old neurospheres were adhered for 48 hours onto poly-D-lysine-coated glass coverslips in SFM devoid of growth factors. Then, to evaluate proliferation/cell death and neuronal differentiation, the neurospheres were allowed to develop for 48 hours or 7 days at 37° C. in the absence or in the presence of hemopressin (100 nM or 1 μM, Proteimax, Cotia, Brazil) and the CB1R antagonist AM 251 (1 μM, Tocris, Ellisville, Mo., USA).
Cell apoptosis was evaluated by the terminal deoxynucleotidyl transferase dUTP nick-end labeling (TUNEL) assay which is a method that detects DNA fragmentation.
SVZ cells treated with Hp for 48 h, in serum free medium devoid of growth factor (differentiation conditions), were rinsed 3×10 min with 0.15 M PBS and permeabilized in 0.25% Triton X-100 for 30 min at RT. Cells were then incubated with terminal deoxynucleotidyl transferase buffer (0.25 U/μl terminal transferase), 6 μM biotinylated dUTP, pH 7.5)) (all from Roche, Basel, Switzerland) for 1 h at 37° C. in a humidified chamber, and then rinsed in TB buffer (300 mM NaCl and 30 mM sodium citrate) for 15 min and in PBS for 5 min. Incubation with Fluorescein was performed for 1 h and nuclei counterstaining and mounting were performed as described previously.
Fluorescence images were recorded using an LSM 510 Meta confocal microscope or an Axioskop 2 Plus fluorescence microscope (both from Carl Zeiss). In all experiments, measurements were performed in the border of SVZ neurospheres where migrating cells form a cell monolayer. […] Percentages of TUNEL or BrdU immunoreactive cells in SVZ cell cultures were calculated from cell counts in five independent microscopic fields in each coverslip with a x40 objective (approximately 200 cells per field). […] For SCCl experiments, the percentage of oligodendrocytic-like responding cells (with a Thromb/Hist ratio above 1.3) was calculated on the basis of one microscopic field per coverslip, containing approximately 100 cells (magnification, ×40).
The effect of Hp on cell death was evaluated after 48 hours of treatment with Hp.

Data set [1] relates to Olig2. Briefly: Western blotting analysis of Olig2. The data set is classed as cell-based, mouse. Conditions: 7 days, n=8. The protocol: Western blotting analysis of Olig2 was performed from 6- to 8-days-old neurospheres that were plated onto six-well plates previously coated with poly-D-lysine, and that were allowed to adhere for 48 h in the presence of SFM, and treated in the absence (control) or in the presence of Hp and/or AM251 for 7 days. For the evaluation of Olig2 protein levels in control versus Hp-treated condition, the medium was renewed after 48 h. Seven days after the first treatment, the cells were washed with 0.15M phosphate-buffered saline (PBS) and harvested by scraping in the lysis buffer [0.15 M NaCl, 0.05 M Tris-base, 5 mM EGTA, 1% Triton X-100, 0.5% DOC, 0.1% SDS, 10 mM dithiothreitol (DTT), containing a protease inhibitor cocktail tablet (Roche Diagnostics GmbH, Germany), pH7.4 at 4° C.].
The supernatant was collected after centrifugation at 14 000 rpm for 10 min, at 4° C. Protein concentration was measured by the BCA method and samples were treated with SDS-PAGE sample buffer [6× concentrated: 350 mM Tris, 10% (w/v) SDS, 30% (v/v) glycerol, 0.6 M DTT, 0.06% (w/v) bromophenol blue], boiled 5 min at 95° C., and stored at −20° C. until use for Western blotting analysis. […]
On the technique in general: A western blot detects proteins with antibodies after separation by electrophoresis.

In data set [2] the test system is Olig2. Kind of data set: Immunocytochemistry for Olig2. It counts as cell-based, mouse. The following applies: Hp treatment. The protocol: Cells were fixed for 30 minutes in 4% paraformaldehyde in phosphate-buffered saline (PBS), permeabilized and blocked for non-specific binding sites for 1 h with 0.25% Triton X-100 (Sigma) and 3% bovine serum albumin (BSA, Sigma) dissolved in PBS. Cells were then subsequently incubated overnight at 4° C. with the following antibodies: rabbit polyclonal anti-CB1R (1:200, Proteimax), mouse monoclonal anti-nestin (1:200, Chemicon, Temecula, Calif., USA), mouse monoclonal anti-GFAP (1:500, Cell Signaling Technology, Danvers, Mass., USA) and rabbit polyclonal anti-Olig2 (1:200, Millipore, Billerica, Mass., USA). Thereafter, the cover slips were rinsed in PBS and incubated for 1 h at RT with the appropriate secondary antibodies: anti-rabbit IgG labeled with Alexa Fluor 488 (1:200) or anti-mouse IgG labeled with Alexa Fluor 594 (1:200) (both from Molecular Probes). After rinsing with PBS, cell preparations were incubated 5 min at RT with Hoechst 33342 (2 μg/mL, Molecular Probes) in PBS, for nuclear staining. Finally, the preparations were mounted using Dakocytomation fluorescent medium (Dakocytomation, Carpinteria, Calif., USA). Fluorescence images were recorded using a digital camera coupled to an Axioskop microscope (Carl Zeiss).

The next data set has as its target CB1R (Homo sapiens, UniProt P21554). Conditions: cited from earlier work.

Molecules are shown by their SMILES.

CB1R, sequence (P21554 whole entry): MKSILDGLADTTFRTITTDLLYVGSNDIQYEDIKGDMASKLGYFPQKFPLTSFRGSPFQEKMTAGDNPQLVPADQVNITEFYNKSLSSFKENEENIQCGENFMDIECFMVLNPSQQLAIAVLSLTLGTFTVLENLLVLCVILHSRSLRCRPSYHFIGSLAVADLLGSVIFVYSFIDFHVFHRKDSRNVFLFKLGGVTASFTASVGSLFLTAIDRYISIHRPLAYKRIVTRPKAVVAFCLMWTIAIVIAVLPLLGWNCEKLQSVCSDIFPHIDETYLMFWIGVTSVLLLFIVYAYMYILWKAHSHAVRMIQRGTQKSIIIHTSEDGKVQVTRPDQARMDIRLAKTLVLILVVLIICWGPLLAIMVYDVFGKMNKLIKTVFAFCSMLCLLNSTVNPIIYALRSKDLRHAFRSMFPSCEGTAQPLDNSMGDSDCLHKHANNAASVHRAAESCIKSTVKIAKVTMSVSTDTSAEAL

For the compound `CC(C)C[C@H](NC(=O)[C@H](Cc1ccccc1)NC(=O)[C@H](CCCCN)NC(=O)[C@H](Cc1ccccc1)NC(=O)[C@H](CC(N)=O)NC(=O)[C@@H](NC(=O)[C@@H]1CCCN1)C(C)C)C(=O)N[C@@H](CO)C(=O)N[C@@H](Cc1cnc[nH]1)C(=O)O` [Hp, PVNFKFLSH], the “toxicity to the cells (TUNEL)” value with SVZ cells (48 hours of treatment) was “not toxic to the cells”. The TUNEL-positive nuclei is on record as 10.26±1.69 with SVZ cells (Hp 100 nM) and 13.25±1.56% with SVZ cells (Hp 1 μM). In addition, the figures for the “Olig2 protein levels normalized to β-actin, relative to control (100%)” value in the data set on Olig2 [1] (Hp 100 nM) and in the data set on Olig2 [1] (Hp 1 μM) were 136.9±10.94% and 158.7±23.62%, respectively. The “number of Olig2-positive cells” value in the data set with Olig2 [2] is on record as “increased”. For the same compound, the “activity at CB1R cannabinoid receptors” value on CB1R is “CB1R receptor selective antagonist”.
